Publication PMC12305494, “Discovery of PXR Antagonist MI891 and PXR Degrader MI1013 and Their Roles in Hepatic Gene Regulation” (Journal of Medicinal Chemistry, 2025)

Legend:
[1] = system: MOLT4 cells; assay: Off-target quantitative global proteomics in MOLT4 cells; type: cell-based, human
Description: Cells were lysed by the addition of lysis buffer (8 M Urea, 50 mM NaCl, 50 mM […] (EPPS) pH 8.5, Protease and Phosphatase inhibitors) and homogenization by bead beating (BioSpec) for three repeats of 30 s at 2400. Bradford assay was used to determine the final protein concentration in the clarified cell lysate. 50 μg of protein for each sample was reduced, alkylated, and precipitated using methanol/chloroform as previously described and the resulting washed precipitated protein was allowed to air-dry. Precipitated protein was resuspended in 4 M Urea, 50 mM HEPES pH 7.4, followed by dilution to <1 M urea with the addition of 200 mM EPPS, pH 8. Proteins were digested overnight at 37 °C with LysC (1:50; enzyme:protein) and trypsin (1:50; enzyme:protein). Sample digests were acidified with formic acid to a pH of 2–3 prior to desalting using C18 solid-phase extraction plates (SOLA, Thermo Fisher Scientific). Desalted peptides were dried in a vacuum-centrifuge and reconstituted in 0.1% formic acid for LC-MS analysis. […]
The diaPASEF raw file processing and controlling peptide and protein level false discovery rates, assembling proteins from peptides, and protein quantification from peptides were performed using library-free analysis in DIA-NN 1.8. […]

[2] = target: T1, vitamin D receptor (VDR) (Homo sapiens, UniProt P11473); assay: VDR luciferase reporter assay, agonistic and antagonistic setups; type: cell-based; details: prototype ligand calcitriol
T1 construct: expressed in transfected cells
Description: (§1) For the farnesoid X receptor (FXR) luciferase gene reporter assay, the full-length expression vector was paired with pFXRE-luc luciferase construct. The p1A1-luc construct was used in the aryl hydrocarbon receptor (AhR) assays with pRL-TK for normalization. Gal4-LXR-α/β, and Gal4-PPAR-γ constructs were used with the pGAL4 UAS-luc construct. For the VDR assay, expression vector pSG5-hVDR together with pVDRE-luc constructs was used. Firefly and Renilla luciferase activities were analyzed using a Dual reporter assay (Promega). For the nuclear receptor assays, prototype ligands were used at the following concentrations: Calcitriol for VDR (100 nM), GW3965 for LXRα and LXRβ (10 μM), 6-OCA for FXR (1 μM), fenofibrate for PPARα (10 μM), estradiol for ERα and β (10 μM), rosiglitazone for PPARγ (10 μM), 3-MC for AhR (5 μM), and TCPOBOP for mCAR (10 μM). Detailed descriptions and protocols are detailed in our recent publication. ,

[3] = target: T2, PPARγ (Homo sapiens, UniProt P37231); assay: PPARγ agonist reporter assay; type: cell-based; details: 10 µM MI891
T2 construct: expressed in transfected cells
Description: as §1, with “publication. , […]” for “publication. ,”
hydrophobic interactions. (F) Superimposed diagram of PXR bound with agonist (SJPYT-328) and antagonists (MI891 and SJPYT-331) to differentiate the agonist and antagonist interactions with helix 12 (H12). The interaction of the agonist with PXR residue (L428) is circled. (G) Extended nuclear receptor selectivity profile. […]

T1 sequence (P11473 whole entry): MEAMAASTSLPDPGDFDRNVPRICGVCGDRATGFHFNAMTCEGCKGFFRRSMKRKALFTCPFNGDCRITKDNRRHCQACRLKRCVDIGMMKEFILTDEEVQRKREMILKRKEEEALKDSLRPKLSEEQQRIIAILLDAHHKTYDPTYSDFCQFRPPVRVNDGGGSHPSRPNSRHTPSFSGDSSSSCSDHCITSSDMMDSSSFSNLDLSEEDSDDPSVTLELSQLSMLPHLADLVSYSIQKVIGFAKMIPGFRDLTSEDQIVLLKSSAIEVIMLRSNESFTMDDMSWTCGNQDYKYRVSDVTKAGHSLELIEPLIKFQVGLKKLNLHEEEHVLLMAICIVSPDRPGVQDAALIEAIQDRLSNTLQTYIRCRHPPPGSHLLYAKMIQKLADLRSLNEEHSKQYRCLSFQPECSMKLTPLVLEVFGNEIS
T2 sequence (P37231 238-505 limits assumed, species assumed): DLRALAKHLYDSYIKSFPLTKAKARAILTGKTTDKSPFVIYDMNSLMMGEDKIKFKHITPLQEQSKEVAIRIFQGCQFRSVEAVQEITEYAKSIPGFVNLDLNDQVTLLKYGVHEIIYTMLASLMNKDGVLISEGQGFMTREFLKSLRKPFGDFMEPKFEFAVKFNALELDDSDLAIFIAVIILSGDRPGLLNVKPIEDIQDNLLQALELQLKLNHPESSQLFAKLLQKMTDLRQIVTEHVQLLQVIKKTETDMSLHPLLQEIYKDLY

How did the “IKZF1, IKZF3 and ZFP91 levels, global proteomics” value [1] turn out when “N-(4-((1-(2,5-dimethoxyphenyl)-5-methyl-1H-1,2,3-triazol-4-yl)sulfonyl)phenyl)-3-(2-(2-(2-(4-(((2-(2,6-dioxopiperidin-3-yl)-1,3-dioxoisoindolin-4-yl)amino)methyl)-1H-1,2,3-triazol-1-yl)ethoxy)ethoxy)ethoxy)propenamide [Compound 36]” was run?
Its value is “degradation”.

And the “GSPT1 expression, global proteomics” value ([1]; 2 μM of MI1013)?
The value was “remains undegraded”.

How did the “agonistic or antagonistic activity on VDR” value [2] turn out when `NC(=O)c1cc(Cn2cc(-c3c(-c4ccc(Cl)cc4)nc4c(F)cc(F)cn34)nn2)ccc1Cl` [Compound 11, 2-Chloro-5-((4-(2-(4-chlorophenyl)-6,8-difluoroimidazo[1,2-a]pyridin-3-yl)-1H-1,2,3-triazol-1-yl)methyl)-benzamide] was run?
The value was “no significant agonistic or antagonistic activities”.

And the “agonistic effect on PPARγ” value [3]?
The value was “no agonistic effects”.
